The values that follow come from publication PMC2613833 (Bioorganic & medicinal chemistry, 2008).

Structures can show the parent of a compound that is named as a salt. Where two headings read alike, the source gives them in different places.

The target of series [1] is T1, estrogen receptor α (ERα) (Homo sapiens, UniProt P03372).
T1 sequence (P03372 1-595): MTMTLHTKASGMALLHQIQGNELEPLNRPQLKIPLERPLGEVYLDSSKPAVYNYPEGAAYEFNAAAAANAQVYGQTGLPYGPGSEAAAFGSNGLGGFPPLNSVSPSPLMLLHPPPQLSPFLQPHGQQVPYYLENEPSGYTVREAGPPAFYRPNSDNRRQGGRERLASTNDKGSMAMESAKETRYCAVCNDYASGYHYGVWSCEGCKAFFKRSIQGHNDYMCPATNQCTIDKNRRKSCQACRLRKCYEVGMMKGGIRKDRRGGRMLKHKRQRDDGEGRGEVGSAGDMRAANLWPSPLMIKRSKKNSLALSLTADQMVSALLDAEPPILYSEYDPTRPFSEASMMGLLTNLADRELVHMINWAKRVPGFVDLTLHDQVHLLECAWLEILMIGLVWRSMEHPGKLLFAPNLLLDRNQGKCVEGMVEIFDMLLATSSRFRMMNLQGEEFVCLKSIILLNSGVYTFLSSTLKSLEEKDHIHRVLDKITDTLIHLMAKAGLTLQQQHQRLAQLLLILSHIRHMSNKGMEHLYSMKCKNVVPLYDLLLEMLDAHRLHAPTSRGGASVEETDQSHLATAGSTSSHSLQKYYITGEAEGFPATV
In words: Luciferase reporter gene assay. The class given is cell-based. Particulars: for IC50: HEC-1 cells, full-length ERα, 1 nM estradiol, 24 h. In general terms: In a reporter assay the amount or activity of a reporter protein is the signal.

The target in series [2] is T2, recombinant estrogen receptor ligand binding domain / fluorescein-labeled SRC peptide (Homo sapiens, UniProt P03372).
T2 sequence (P03372 311-547 limits assumed): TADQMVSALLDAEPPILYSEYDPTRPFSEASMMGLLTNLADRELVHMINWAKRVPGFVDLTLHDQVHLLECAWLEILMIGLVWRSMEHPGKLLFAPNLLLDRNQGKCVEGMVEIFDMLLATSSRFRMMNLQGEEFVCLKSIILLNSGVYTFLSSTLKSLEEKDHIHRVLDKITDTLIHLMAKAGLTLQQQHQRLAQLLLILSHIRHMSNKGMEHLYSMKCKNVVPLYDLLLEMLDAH
In words: Fluorescence polarization assay of ER/coactivator interaction. Particulars: 1 μM estradiol, Figure 1. For orientation: Fluorescence polarisation rises when a labelled molecule tumbles more slowly, as on binding a larger partner.

For series [3], the system named is ER transactivation in human breast cancer MCF-7 cells. Particulars: cited from earlier work.
Series [4] concerns ER. Particulars: read-out: IC50, CBI activity against ER; mammalian two-hybrid (M2H) assay; cited from earlier work.
For series [5], the target named is T3, ERα (Homo sapiens, UniProt P03372).
T3 sequence (P03372 1-595): T1 sequence (P03372 1-595)
Briefly: Covalent attachment test, ESI mass spectrometry of ER after incubation. Particulars: 30 min at 4 °C in phosphate-buffered saline, dialysis overnight, low-res ESI.

Series [6] has as its target T4, Gal4-SRC-1NRD / ERαDEF-VP16 (Homo sapiens, UniProt P03372).
T4 sequence (P03372 264-595 limits assumed): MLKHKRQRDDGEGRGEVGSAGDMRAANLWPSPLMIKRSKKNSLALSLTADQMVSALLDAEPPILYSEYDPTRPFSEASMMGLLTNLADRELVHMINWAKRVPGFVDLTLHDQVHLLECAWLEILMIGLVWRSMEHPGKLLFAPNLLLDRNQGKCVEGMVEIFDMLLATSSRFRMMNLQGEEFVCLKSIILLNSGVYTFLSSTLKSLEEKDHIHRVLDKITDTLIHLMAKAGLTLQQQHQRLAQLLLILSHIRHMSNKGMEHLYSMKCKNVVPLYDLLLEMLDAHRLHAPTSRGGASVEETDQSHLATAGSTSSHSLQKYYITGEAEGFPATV
Briefly: Mammalian two hybrid. Format: cell-based. Particulars: read-out: IC50, CBI inhibition in the M2H assay; HEC-1 cells, 1 nM estradiol, 24 h.

[7] abbreviates: IC50, CBI inhibition of reporter gene activity.
Where [8] appears, read: read-out: IC50, CBI inhibition of reporter gene activity.

Consider `N=C(N)N/N=C/C1=C(Br)c2ccccc2CC1` [compound 24, 1-Bromo-3,4-dihydronaphthalene-2-carboxaldehyde aminoguanylhydrazone HCl], for which, in series [1] (setting [7]), the half-maximal inhibitory concentration (IC50) – broadly, the concentration that inhibits the measured activity by half – was 7.8 ± 0.1 µM.

Take `COC1=C(/C=N/NC(=N)N)CCc2ccccc21` [compound 25, 1-Methoxy-3,4-dihydronaphthalene-2-carboxaldehyde aminoguanylhydrazone HCl]: the midpoint of inhibition in series [1] (setting [7]), the IC50, lay at 3.1 ± 0.8 µM. As for `CC(/C=N/NC(=N)N)=C(/Cl)c1ccccc1` [compound 29, β-Chloro-α-methylcinnamaldehyde aminoguanylhydrazone HCl], in series [2], the “inhibition of ER/coactivator interaction” value is recorded as “Dose-dependent inhibition”. In series [1] (setting [7]), this molecule registered a half-maximal inhibitory concentration (IC50) of 1.4 ± 0.4 µM. In the case of `N=C(N)N/N=C/C1=C(Oc2ccccc2)c2ccccc2CC1` [compound 26, 1-Phenoxy-3,4-dihydronaphthalene-2-carboxaldehyde aminoguanylhydrazone HCl], half-maximal inhibition in series [1] (setting [7]) (IC50) required 3.5 ± 1.1 µM. On to “1-(1-Chloro-3,4-dihydro-naphthalen-2-yl)-ethanone aminoguanylhydrazone HCl [compound 33]”, for which, in series [1] (setting [8]), the half-maximal inhibitory concentration (IC50) was at least 50 µM.

Consider `N=C(N)N/N=C/C1=C(Cl)c2ccccc2CC1` [compound 1, 1-Chloro-3,4-dihydronaphthalene-2-carboxaldehyde aminoguanylhydrazone HCl], for which, in series [2], the “inhibition of ER/coactivator interaction” value is “Dose-dependent inhibition”. Further, the ER transactivation entry in series [3] was “inhibited ER transactivation”. Further, the concentration for half-maximal inhibition (IC50) in series [4] was 5.5 µM. Further, the “change in molecular weight of ER (covalent attachment)” value in series [5] is “no change in molecular weight was observed”. On to hydroxytamoxifen [reference compound], for which the “increase in IC50 with a 100-fold higher estradiol concentration” value in series [1] (reporter gene assay, 1 nM vs 100 nM estradiol, Figure 4b) was found to be 100 fold. In series [1] (setting [7]), `CC1CC(/C=N/NC(=N)N)=C(Cl)c2ccccc21` (centres unmarked) [compound 21, 1-Chloro-3-dihydro-4-methylnaphthalene-2-carboxaldehyde aminoguanylhydrazone HCl] gave an IC50 of 1.5 µM. Same read-out and setting: to `N=C(N)N/N=C/c1ccc2ccccc2c1` [compound 32, 2-(2-Naphthalenylmethylene)hydrazinecarboximidamide HCl] belongs 7.5 ± 0.5 µM; to `Cc1cc(C)c2c(c1)C(Cl)=C(/C=N/NC(=N)N)CC2` [compound 20, 1-Chloro-5,7-dimethyl-3,4-dihydronaphthalene-2-carboxaldehyde aminoguanylhydrazone HCl], 1.2 ± 0.1 µM; to `N=C(N)N/N=C/c1cccc2ccccc12` [compound 31, 2-(1-Naphthalenylmethylene) hydrazinecarboximidamide HCl], 7.5 µM. As for `N=C(N)N/N=C/C1=C(Cl)c2ccccc2CCC1` [compound 23, 9-Chloro-6,7-dihydro-5-benzocycloheptene-8-carboxaldehyde aminoguanylhydrazone HCl], in series [2], the “inhibition of ER/coactivator interaction” value is “Dose-dependent inhibition”. This molecule gave an IC50 in series [1] (setting [7]) of 3.3 ± 0.8 µM.

As to “3-Chloro-3-naphthalen-1-yl-propenal aminoguanylhydrazone HCl [compound 30]”, the concentration for half-maximal inhibition (IC50) in series [6] and in series [1] (setting [8]) was at least 50 µM each time.

Regarding `N=C(N)N/N=C/C1=C(C(F)(F)F)c2ccccc2CC1` [compound 27, 1-(1,1,1,-Trifluoromethyl)-3,4-dihydronaphthalene-2-carboxaldehyde aminoguanylhydrazone HCl], 12 µM corresponded to half-maximal inhibition in series [1] (setting [7]) (IC50).
